TGI and GI50 data for 14 molecules are collected here from PubChem BioAssay (NCI).

Test systems include 786-0 renal; ACHN renal; HOP-62 NSCLC; KM12 colon; NCI-H522 lung; SK-MEL-2 melanoma; SK-MEL-28 melanoma; UO-31 renal; SNB-19 CNS.
Common to all, as to assay: NCI anticancer screen, dose series, 48 h

Molecules are shown by their SMILES.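 Five compound concentrations were applied to cells in 96-well plates for 48 hours; endpoints were derived by simple linear interpolation of the resulting dose-response curve. GI50 marks 50% less growth. TGI: total growth inhibition.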

As to `C=CCSC[C@H](NC(=O)COc1ccccc1)C(=O)NC(C(=O)OCc1ccc([N+](=O)[O-])cc1)=C(C)C`, the TGI in the experiment on 786-0 renal, in the experiment with ACHN renal, in the experiment on HOP-62 NSCLC, in the experiment on KM12 colon, in the experiment on NCI-H522 lung and in the experiment on SK-MEL-2 melanoma was more than 100 µM throughout. Further, the TGI in the experiment with SK-MEL-28 melanoma and with UO-31 renal was more than 100 µM throughout.

In the case of `COC(=O)C(C#N)=C1c2ccccc2Oc2ccccc21`, the TGI in the experiment with 786-0 renal is more than 100 µM; in the experiment with ACHN renal, more than 100 µM; with HOP-62 NSCLC, more than 100 µM; with KM12 colon, more than 100 µM; in the experiment on NCI-H522 lung, 77.3 µM; in the experiment on SK-MEL-2 melanoma, more than 100 µM. Further, the TGI with SK-MEL-28 melanoma, in the experiment with SNB-19 CNS and with UO-31 renal was more than 100 µM in each case.

`FC(F)(F)c1nc(-c2ccccc2Cl)[nH]c1C(F)(F)F`: the TGI in the experiment with 786-0 renal amounted to 4.73 µM; with ACHN renal, 2.65 µM; in the experiment with HOP-62 NSCLC, 1.35 µM; in the experiment on KM12 colon, 4.13 µM; in the experiment on SK-MEL-2 melanoma it was 1.4 µM; with SK-MEL-28 melanoma it was 5.32 µM. The values for the TGI in the experiment with SNB-19 CNS and in the experiment on UO-31 renal were 8.27 µM and 2.15 µM, respectively.

As for `C1COCCN1.C1COCCN1.N.N.[Cl-].[Pt+2]`, the GI50 in the experiment with 786-0 renal, with NCI-H522 lung, in the experiment with SK-MEL-2 melanoma, in the experiment with SK-MEL-28 melanoma, in the experiment on SNB-19 CNS and with UO-31 renal was more than 100 µM each time. Further, the TGI with 786-0 renal, in the experiment on NCI-H522 lung, with SK-MEL-2 melanoma, in the experiment with SK-MEL-28 melanoma, in the experiment with SNB-19 CNS and with UO-31 renal was more than 100 µM throughout.

Regarding `CC(=O)[CH-]C(=O)c1ccccc1.CC(=O)[CH-]C(=O)c1ccccc1.CCCCCCCCCCCCCCCCCC(=O)[O-].CCCCCCCCCCCCCCCCCC(=O)[O-].[Ti+4]`, the GI50 is 18.8 µM with 786-0 renal; 30.7 µM in the experiment with HOP-62 NSCLC; 33.6 µM in the experiment with KM12 colon; 23.1 µM in the experiment on NCI-H522 lung; 21.7 µM with SK-MEL-2 melanoma; 23.7 µM in the experiment on SK-MEL-28 melanoma. Moreover, the GI50 is 17.5 µM in the experiment with SNB-19 CNS and 13.8 µM in the experiment with UO-31 renal. Besides, the TGI with 786-0 renal was 33.2 µM; with HOP-62 NSCLC, 90.9 µM; in the experiment on KM12 colon it was more than 100 µM; in the experiment on NCI-H522 lung, 62.4 µM; in the experiment with SK-MEL-2 melanoma, 52.4 µM; with SK-MEL-28 melanoma it was 60.5 µM. The TGI in the experiment on SNB-19 CNS was found to be 33.6 µM; with UO-31 renal, 26.7 µM.

On to `CSC1=NC=CCN1C`, for which the TGI in the experiment with 786-0 renal, with ACHN renal, in the experiment with HOP-62 NSCLC, in the experiment on KM12 colon, in the experiment on NCI-H522 lung and in the experiment with SK-MEL-2 melanoma was more than 100 µM each time. In addition, the TGI in the experiment with SK-MEL-28 melanoma, in the experiment with SNB-19 CNS and in the experiment on UO-31 renal was more than 100 µM throughout.

In the case of `COc1cc2c(c3c1C=CCO3)C(=O)c1ccccc1C2=O`, the TGI in the experiment on 786-0 renal, with ACHN renal, with HOP-62 NSCLC, in the experiment with KM12 colon, in the experiment with NCI-H522 lung and in the experiment on SK-MEL-2 melanoma was more than 100 µM throughout. In addition, the TGI with SK-MEL-28 melanoma, in the experiment with SNB-19 CNS and in the experiment on UO-31 renal was more than 100 µM each time.

Consider `Cn1cc(NC(=O)c2cc(NC(=O)CCCCCCCCCCC(=O)Nc3cc(C(=O)Nc4cc(C(=O)NCCC(=N)N)n(C)c4)n(C)c3)cn2C)cc1C(=O)NCCC(=N)N`, for which the TGI was more than 100 µM in the experiment with 786-0 renal; more than 100 µM with ACHN renal; 81.3 µM in the experiment on HOP-62 NSCLC; more than 100 µM in the experiment with KM12 colon; more than 100 µM with NCI-H522 lung; more than 100 µM in the experiment with SK-MEL-2 melanoma. Moreover, the TGI in the experiment on SNB-19 CNS and in the experiment on UO-31 renal was more than 100 µM throughout.

With `O=C(C#Cc1c[nH]c(=O)[nH]c1=O)c1ccccc1Cl`, the TGI in the experiment with 786-0 renal was 32 µM; with ACHN renal, 33.1 µM; in the experiment on HOP-62 NSCLC, more than 100 µM; with KM12 colon it was 88.4 µM; in the experiment on SK-MEL-2 melanoma, 29.9 µM; in the experiment on SK-MEL-28 melanoma, 32 µM. In addition, the figures for the TGI in the experiment on SNB-19 CNS and with UO-31 renal were more than 100 µM and 38.5 µM, respectively.

Consider `COC1O[C@H]2CCN(C(=O)OCc3ccccc3)[C@H]2[C@H]1OCc1ccccc1` (stereo partly drawn), for which the TGI in the experiment with 786-0 renal, in the experiment on ACHN renal, in the experiment on HOP-62 NSCLC, in the experiment on KM12 colon, in the experiment with NCI-H522 lung and in the experiment on SK-MEL-2 melanoma was more than 100 µM in each case. For the same molecule, the TGI with SK-MEL-28 melanoma is more than 100 µM; in the experiment with SNB-19 CNS, more than 100 µM; with UO-31 renal, 97.7 µM.

With `Cc1cc2c(cc1C)[n+](=O)c(C(=O)C/C(=N/NC(=O)c1ccccc1O)C(=O)Nc1ccccc1C(C)C)c(C)n2[O-]`, the TGI with 786-0 renal, with ACHN renal, in the experiment with HOP-62 NSCLC, in the experiment on KM12 colon, in the experiment with NCI-H522 lung and with SK-MEL-2 melanoma was more than 100 µM in each case. The TGI in the experiment with SK-MEL-28 melanoma and with SNB-19 CNS was more than 100 µM each time.

As to `O=[N+]([O-])[C@@H]1C2C=CC(C2)[C@H]1Cl` (stereo partly drawn), the TGI with 786-0 renal, in the experiment on ACHN renal, in the experiment with HOP-62 NSCLC, in the experiment on KM12 colon, in the experiment with NCI-H522 lung and in the experiment on SK-MEL-2 melanoma was more than 100 µM throughout. Also, the TGI in the experiment with SK-MEL-28 melanoma, in the experiment on SNB-19 CNS and in the experiment with UO-31 renal was more than 100 µM each time.

For the molecule `Cc1ccccc1C(C#N)C(=O)C(=O)Nc1nc([N+](=O)[O-])cs1` (stereo not drawn), the TGI in the experiment with 786-0 renal, in the experiment with ACHN renal, in the experiment on HOP-62 NSCLC, in the experiment on KM12 colon, in the experiment on NCI-H522 lung and with SK-MEL-28 melanoma was more than 100 µM each time. Also, the TGI in the experiment with SNB-19 CNS and in the experiment on UO-31 renal was more than 100 µM each time.

As for `COC(=O)C(c1[nH]nc2ccccc12)C(C(=O)OC)c1[nH]nc2ccccc12` (stereo not drawn), the TGI in the experiment with 786-0 renal, with ACHN renal, in the experiment on HOP-62 NSCLC, in the experiment on KM12 colon, with SK-MEL-28 melanoma and in the experiment with SNB-19 CNS was more than 100 µM throughout. This molecule also displayed a TGI in the experiment with UO-31 renal of more than 100 µM.
